The text below walks through data of patent US6576622B1, “Drug combination for the treatment of viral diseases” (University of Medicine & Dentistry of New Jersey, priority 1995, dated 2003).

A short description of data set [1]: HPLC analysis of phosphorylated AZT metabolites in clones incubated with 3H-AZT. In kind it is in vitro ADME. As for the experimental part: Cell lines were incubated with ^3H-thymidine or ^3H-AZT for 4 hours. Dried methanol extracts of the clones were redissolved in 60 μof distilled water and centrifuged to remove undissolved material. Twenty microliters of the sample was injected and separated on a 10×100 mm Rainin Hydropore anion exchange column. The nucleosides were eluted from the column with a linear gradient of potassium phosphate (5 mM to 1 M, pH4.0) at a flow rate of 1 ml/min. The samples were collected (0.5 ml), mixed with 5 ml Packard scintillation fluid, and quantitated using a liquid scintillation counter. Phosphorylated derivatives of thymidine and AZT were identified with authentic standards.
Pool sizes were determined by incubation of cells with ^3H-AZT for 4 hours followed by cellular extraction and HPLC. The numbers are expressed as pmoles/10^6 cells. The numbers in parentheses represent the percentage of total radioactive species in that pool.

Data set [2] relates to recombinant HIV, recombinant MLV, or replication-competent HIV. In kind it is cell-based. Conditions: Hela-T4, MLV-neo; for No. of persistently resistant colonies: AZT 10 uM, DDI 50 uM, DDC 10 uM, D4T 50 uM, resistant/tested; for Frequency: frequency of persistently resistant colonies. The source says: The presence of a selectable marker gene in the recombinant HIV allowed the isolation of cells infected by the recombinant viruses in the presence of d4T. These cells were characterized by infection with both additional recombinant viruses and by replication-competent viruses.
(§1) Table 6. Colony formation and persistent resistance after Hela-T4 cell infection with MLV-neo virus in the presence and absence of various antiviral agents.

The test system of another data set is HIV-LacZ. Type of data set: cell-based. The conditions noted are these: for cross resistance of cell lines “persistently resistant” to AZT to other nucleoside analogs: d4T at 50 μM.
The test system of the next data set is MLV-neo. In words: MLV-neo colony formation in the presence of antiviral agents. Type of data set: cell-based, Moloney Leukemia virus. The conditions noted are these: Hela-T4, AZT 10 uM, DDI 50 uM, DDC 10 uM, D4T 50 uM, control 9050. As for the experimental part:
Production of recombinant HIV-gpt has been described elsewhere (26). The amphotropic cell line PA317 was transfected with the recombinant murine retrovirus pLXSN (36) and was used as the source of the recombinant MLV-neo virus. Stock preparations of HIV-1IIIB were harvested from H9 cells by the “shake off method” (13). Stock virus infectivity was determined by end-point dilution in MT-2 cells (32). Virus induced cytopathic effect was scored 7 days post-infection and the TCID50 was calculated with the Reed and Muench equation (33).
To confirm this high rate of infection in the absence of genetic drug resistance, we used several other recombinant viruses and host cells. […] A high rate of infection of Jurkat cells in the presence of d4T has also been seen.
Table 5. HIV-gpt produced in COS cells by transfection with plasmids (plasmid derived) is compared with HIV-gpt produced by, rescue from H9/HIV-gpt cell line after infection with HIV-IIIB and cells infected with MLV-neo.
as §1

A further data set relates to HIV-gpt. The data set can be described thus: HIV-gpt colony formation after infection of HeLa-T4 cells in the presence of antiretroviral agents. Conditions: HeLa-T4; plasmid derived HIV-gpt (COS cells); AZT 10 μM, DDI 50 μM, D4T 50 μM; no drug control 8800. In kind it is cell-based.
Where [3] appears, read: S1 (sensitive) cell line, 3H-AZT for 4 hours, HPLC.
Where [4] appears, read: R116 (“persistently resistant”) cell line, 3H-AZT for 4 hours, HPLC.

In the case of `Cc1cn([C@H]2C[C@H](N=[N+]=[N-])[C@@H](COP(=O)(O)OP(=O)(O)O)O2)c(=O)[nH]c1=O` [AZTDP, 3′-azido-3′-deoxythymidine diphosphate], in data set [1] (setting [3]), the concentration in cells turned out to be 0.0116 pmoles/10^6 cells and the “percentage of total radioactive species in that pool” value (shortened to “percentage”) stood at 6.9%. Further, in data set [1] (human, 4 h), the concentration in cells is given as 0.0193 pmoles/10^6 cells and the “percentage” value is on record as 9.6%.

On to `Cc1cn([C@H]2C[C@H](N=[N+]=[N-])[C@@H](COP(=O)(O)O)O2)c(=O)[nH]c1=O` [AZTMP, 3′-azido-3′-deoxythymidine monophosphate], for which, in data set [1] (setting [4]), the concentration in cells is given as 0.1575 pmoles/10^6 cells and the “percentage” value was 78.6%. For the same compound, in data set [1] (setting [3]), the concentration in cells was 0.1212 pmoles/10^6 cells and the “percentage” value was found to be 71.6%.

As to `Cc1cn([C@H]2C[C@H](N=[N+]=[N-])[C@@H](CO[P@](=O)(O)O[P@](=O)(O)OP(=O)(O)O)O2)c(=O)[nH]c1=O` [AZTTP, 3′-azido-3′-deoxythymidine triphosphate], the “reduction in AZTTP in R116 cells compared to S1 cells” value in data set [1] (3H-AZT incubation) is given as approximately 2 fold. Besides, in data set [1] (setting [3]), the concentration in cells is on record as 0.0158 pmoles/10^6 cells and the “percentage” value is on record as 9.3%. For the same compound, in data set [1] (human, 4 h), the concentration in cells is on record as 0.0083 pmoles/10^6 cells and the “percentage” value worked out at 4.2%.

For the compound `Nc1ccn([C@H]2CC[C@@H](CO)O2)c(=O)n1` [DDC], in data set [2], the “No. of persistently resistant colonies” value was 2/17 and the Frequency was 2.2 × 10^−4. Besides, the “cross resistance of cell lines “persistently resistant” to AZT to other nucleoside analogs” value in the data set on HIV-LacZ was “None of the “persistently resistant” cell lines were cross “resistant””. Besides, the No. of colonies in the data set on MLV-neo amounted to 17.

For the compound `O=c1[nH]cnc2c1ncn2[C@H]1CC[C@@H](CO)O1` [DDI], in data set [2], the “No. of persistently resistant colonies” value is listed as 4/19 and the Frequency is reported as 4.4 × 10^−4. Besides, the “Number of “persistently resistance” colonies” value with HIV-LacZ (colonies from HIV-gpt infection of HeLa-T4 in presence of drug, resistant/tested) was 2/16. The “cross resistance of cell lines “persistently resistant” to AZT to other nucleoside analogs” value with HIV-LacZ is on record as “None of the “persistently resistant” cell lines were cross “resistant””. The Frequency in the data set with HIV-LacZ (frequency of persistently resistant colonies, HeLa-T4, plasmid derived HIV-gpt) was 2.3 × 10^−4. Besides, the No. of colonies with MLV-neo turned out to be 19. The Number of colonies with HIV-gpt is recorded as 16.
